We go through 18 compounds from patent publication US12528777B2, “Quinazolinones derivatives for treatment of non-alcoholic fatty liver disease, preparation and use thereof” (Council of Scientific and Industrial Research, priority 2020, dated 2026).

Molecules are shown by their SMILES.

Assay [1] concerns ATGL. The experiment in a line: Western blot of ATGL level in HepG2 cells. On the set-up: key to Increase in ATGL level: + = slight or in insignificant; ++ = Moderate; +++ and ++++ = active; +++ and ++++ = active; +++++ = very active. Particulars: western blot; for Increase in ATGL level: HepG2 cells, score; for ATGL level in HepG2 cells: 24 hours, 10 μM screening or 50 nM-5 μM dose dependent. In kind it is cell-based. The procedure:
(§1) To select the compounds capable of inhibiting the ubiquitination of ATGL by COP1 by targeting the VP motif, confocal microscopy was performed with the provided molecules. If the compound was effective in inhibiting the interaction, there would be a reduction in the number of fat droplets in the cells after treatment. […] With this rationale in mind, HepG2 cells were induced to accumulate lipid droplets after treatment with 250 µM of oleate and 10 μM of the specific compounds were added. The potential of the compounds to bring about a reduction in the number of fat droplets was then checked by comparison with oleate induced cells by counting number of droplets of approximately 20 cells from each treatment and calculating the average number of lipid droplets of each cell. The selected compounds were then subjected to dose dependent treatments and the ones which could maintain its potency to reduce fat droplets at lower doses were then selected for western blot analysis. The compound which could reduce the number of fat droplets in the cells are expected to raise the levels of ATGL since they are likely to deter COP1 from ubiquitinating ATGL. This increase will be visible only in the protein level and gene expression is likely to remain unchanged since ubiquitination is a […] modification. Thus, western blot was performed to check ATGL levels in the cells with the selected molecules.
HepG2 cells were treated with the compounds 9, 10, 11, 17, 18, 23, 24, 115, 123, 127, 139,107, 171, 179, 73, 187, 211, 215, 219, 223, 232, 238, 241, 244, 258, 299, 308, and 333a, (10 μM for initial screening and 50 nM, 100 nM, 200 nM, 500 nM, 1 μM and 5 μM for dose dependent assays) for 24 hours. After removing media from the cells, the wells were washed with 1×PBS twice to remove any remnant media. Cells were then lysed in lysis buffer containing 50 mM Tris-HCl (pH 7.4), 100 mM NaCl, 1 mM EDTA, 1 mM EGTA, 1% Triton X-100 and protease inhibitor cocktail (Millipore, Billierica, MA, USA). Following centrifugation at 20,000 g for 20 minutes, the protein solution was extracted from the cells. Protein was estimated using Bradford assay. Bradford's reagent (BioRad) was diluted in 1:4 ratio in double distilled water. 2 μl of protein sample was added to 100 μl of the reagent and absorbance was measured at 595 nm. […] of protein was diluted in lysis buffer. 1× loading buffer diluted from 5× stock containing 250 mM Tris-HCl (pH 6.8), 10% SDS, 50% glycerol, 0.1% bromophenol Blue and 10% β-mercaptoethanol was added. The protein samples were then heated at 95° C. for 10 minutes, cooled and centrifuged at 12,000 g for 2 minutes prior to loading.
For western blotting, the proteins were resolved in 10% SDS PAGE (discontinuous buffer system). 1× running buffer containing SDS, Tris Base and Glycine was used to run the gel at 80V for approximately 2 hours. Transfer was done using PVDF membrane (Millipore) having pore size of 0.45 μm. 1× transfer buffer containing Tris-Base, Glycine and 20% methanol was used for wet transfer. Transfer was done at 90V for 3 hours. Following transfer, the PVDF membrane containing the proteins were washed in 1×PBST comprising of 1×PBS and 1% Tween 20 (Sigma Aldrich). The membrane was then incubated for 1 hour at room temperature in 5% skim milk powder to block the non-specific sites. Following multiple washes with 1×PBST to wash away any remaining blocking buffer, the required primary antibody (COP1 [Bethyl Laboraties], ATGL [Cell Signalling Technology] or Actin[Cell Signalling Technology]) prepared with 1×PBST, 1% Bovine Serum Albumin and 0.04% Sodium Azide was added to the membrane and incubated overnight at 4° C. The next day, the membrane was again washed multiple times with 1×PBST to remove any unbound primary antibody. The membrane was then incubated with goat anti-rabbit secondary antibody (Genei) for 1 hour at room temperature and washed again for multiple times with 1×PBST. […]

Assay [2] concerns HepG2 cells. The assay can be described thus: Confocal microscopy: lipid droplets in oleate induced HepG2 cells. In kind it is cell-based. Set-up: key to Reduction in Lipid Droplets: + = slight or in insignificant; ++ = Moderate; +++ and ++++ = active; +++ and ++++ = active; +++++ = very active. Particulars: for Reduction in Lipid Droplets: oleate induced HepG2 cells, score; for Number of lipid droplets: HepG2 cells, 250 μM oleate induction. As to the method:
as §1
HepG2 cells were plated in confocal dishes (SPL, Genetix Biotech Asia Pvt. Ltd.). The cells were allowed to adhere and divide for 16 hours. 10 μM for initial screening and 10 nM, 20 nM, 50 nM, 100 nM, 200 nM, 500 nM, 1 μM and 5 μM for dose dependent assays of the compounds 9 and 107 were dissolved in DMSO and added to the cells. 250 μM of oleate was used for induction. BSA (Sigma Aldrich) was used as a negative control. Post 24 hours of treatment, media was decanted from the cells and washed with 1×PBS solution to remove any remnant. 200 μl of staining solution containing 200 ng/ml BODIPY (Invitrogen) and 25 µg/ml HOECKST342 (Invitrogen) were added to the cells and incubated at 37° C. for 30 minutes under dark conditions. Cells were washed 3 times with 1×PBS to remove excess stain. FLUOVIEW FV10i (Olympus) was used to visualise the cells.

Consider `COCCn1cnc2ccc(NC(=O)Nc3cccc(N(Cc4ccccc4)C(C)=O)c3)cc2c1=O` [Compound 24, N-benzyl-N-(3-(3-(3-(2-methoxyethyl)-4-oxo-3,4-dihydroquinazolin-6-yl)ureido)phenyl)acetamide], for which, in assay [1], the “Increase in ATGL level” value is recorded as “++++” and the “ATGL level in HepG2 cells” value is “increased ATGL level”. Moreover, the “Reduction in Lipid Droplets” value in assay [2] is reported as “+”.
As for `COCCn1cnc2ccc(NC(=O)Nc3ccc(F)cc3)cc2c1=O` [Compound 35, 1-(4-fluorophenyl)-3-(3-(2-methoxyethyl)-4-oxo-3,4-dihydroquinazolin-6-yl)urea], in assay [1], the “Increase in ATGL level” value is “+”. Also, in assay [2], the “Reduction in Lipid Droplets” value is “+”.
With `COCCn1cnc2ccc(NC(=O)Nc3ccc(F)c(Cl)c3)cc2c1=O` [Compound 36, 1-(3-chloro-4-fluorophenyl)-3-(3-(2-methoxyethyl)-4-oxo-3,4-dihydroquinazolin-6-yl)urea], the “Increase in ATGL level” value in assay [1] is recorded as “+++”. Also, the “Reduction in Lipid Droplets” value in assay [2] was “+”.
Taken in the same sequence, the figures for `COCCn1cnc2ccc(NC(=O)Nc3ccc(OC(F)(F)F)cc3)cc2c1=O` [Compound 37, 1-(3-(2-methoxyethyl)-4-oxo-3,4-dihydroquinazolin-6-yl)-3-(4-(trifluoromethoxy)phenyl)urea] were “+” and “+”.
In the same order, the values of `COCCn1cnc2ccc(NC(=O)Nc3ccc(OC)cc3)cc2c1=O` [Compound 40, 1-(3-(2-methoxyethyl)-4-oxo-3,4-dihydroquinazolin-6-yl)-3-(4-methoxyphenyl)urea] are “++++” and “++”.
Regarding `COCCn1cnc2ccc(NC(=O)Nc3ccccc3OC)cc2c1=O` [Compound 41, 1-(3-(2-methoxyethyl)-4-oxo-3,4-dihydroquinazolin-6-yl)-3-(2-methoxyphenyl)urea], in assay [1], the “Increase in ATGL level” value is “++++”. For the same compound, the “Reduction in Lipid Droplets” value in assay [2] is “++”.
In the same order, the values of `CCOC(=O)c1cccc(NC(=O)Nc2ccc3ncn(CCOC)c(=O)c3c2)c1` [Compound 42, ethyl 3-(3-(3-(2-methoxyethyl)-4-oxo-3,4-dihydroquinazolin-6-yl)ureido)benzoate] are “+” and “+”.
For `CCOC(=O)Cn1cnc2ccc(NC(=O)Nc3ccc(F)c(Cl)c3)cc2c1=O` [Compound 83, ethyl 2-(6-(3-(3-chloro-4-fluorophenyl)ureido)-4-oxoquinazolin-3 (4H)-yl)acetate], the “Increase in ATGL level” value in assay [1] is on record as “+”. In addition, the “Reduction in Lipid Droplets” value in assay [2] is “+”.
As for `CCOC(=O)Cn1cnc2ccc(NC(=O)Nc3ccc(OC(F)(F)F)cc3)cc2c1=O` [Compound 84, ethyl 2-(4-oxo-6-(3-(4-(trifluoromethoxy)phenyl)ureido)quinazolin-3 (4H)-yl)acetate], the “Increase in ATGL level” value in assay [1] is reported as “++”. Further, the “Reduction in Lipid Droplets” value in assay [2] was “+++”.
Taken in the same sequence, the figures for `CCOC(=O)Cn1cnc2ccc(NC(=O)Nc3cccc(C(C)=O)c3)cc2c1=O` [Compound 85, ethyl 2-(6-(3-(3-acetylphenyl)ureido)-4-oxoquinazolin-3 (4H)-yl)acetate] were “+” and “+”.
Take `COCCCn1cnc2ccc(NC(=O)Nc3cccc(C(C)=O)c3)cc2c1=O` [Compound 89, 1-(3-acetylphenyl)-3-(3-(3-methoxypropyl)-4-oxo-3,4-dihydroquinazolin-6-yl)urea]: in assay [1], the “Increase in ATGL level” value is reported as “+” and the “ATGL level in HepG2 cells” value is “some sort of increase in ATGL level”. In assay [2], the “Number of lipid droplets” value is “reduction in lipid droplets” and the “Reduction in Lipid Droplets” value is reported as “+++”.
In the same order, the values of `CCOCCn1cnc2ccc(NC(=O)Nc3cccc(C(C)=O)c3)cc2c1=O` [Compound 93, 1-(3-acetylphenyl)-3-(3-(2-ethoxyethyl)-4-oxo-3,4-dihydroquinazolin-6-yl)urea] are “++++”, “some sort of increase in ATGL level”, “reduction in lipid droplets” and “+++”.
For the compound `CCOCCn1cnc2ccc(NC(=O)Nc3ccc(C(C)=O)cc3)cc2c1=O` [Compound 94, 1-(4-acetylphenyl)-3-(3-(2-ethoxyethyl)-4-oxo-3,4-dihydroquinazolin-6-yl)urea], in assay [1], the “Increase in ATGL level” value is given as “+”. In addition, in assay [2], the “Reduction in Lipid Droplets” value is recorded as “++”.
`COc1cccc(-n2cnc3ccc(NC(=O)Nc4cccc(C(C)=O)c4)cc3c2=O)c1` [Compound 103, 1-(3-acetylphenyl)-3-(3-(3-methoxyphenyl)-4-oxo-3,4-dihydroquinazolin-6-yl)urea]: in assay [1], the “Increase in ATGL level” value was “+” and the “ATGL level in HepG2 cells” value was “some sort of increase in ATGL level”. Besides, in assay [2], the “Number of lipid droplets” value was “reduction in lipid droplets” and the “Reduction in Lipid Droplets” value is listed as “+”.
For the compound `COCCn1c(C(C)C)nc2ccc(NC(=O)Nc3cccc(C(C)=O)c3)cc2c1=O` [Compound 111, 1-(3-acetylphenyl)-3-(2-isopropyl-3-(2-methoxyethyl)-4-oxo-3,4-dihydroquinazolin-6-yl)urea], the “Increase in ATGL level” value in assay [1] is “+++”. Also, the “Reduction in Lipid Droplets” value in assay [2] is “++”.
In the same order, the values of `COCCn1c(-c2ccc(F)cc2)nc2ccc(NC(=O)Nc3cccc(C(C)=O)c3)cc2c1=O` [Compound 115, 1-(3-acetylphenyl)-3-(2-(4-fluorophenyl)-3-(2-methoxyethyl)-4-oxo-3,4-dihydroquinazolin-6-yl)urea] are “+” and “+”.
Consider `COCCn1c(-c2ccc(OC)cc2)nc2ccc(NC(=O)Nc3cccc(C(C)=O)c3)cc2c1=O` [Compound 119, 1-(3-acetylphenyl)-3-(3-(2-methoxyethyl)-2-(4-methoxyphenyl)-4-oxo-3,4-dihydroquinazolin-6-yl)urea], for which the “Increase in ATGL level” value in assay [1] was “+”. Further, the “Reduction in Lipid Droplets” value in assay [2] is listed as “+”.
For `CC(=O)c1cccc(NC(=O)Nc2ccc3ncn(CCN4CCOCC4)c(=O)c3c2)c1` [Compound 135, 1-(3-acetylphenyl)-3-(3-(2-morpholinoethyl)-4-oxo-3,4-dihydroquinazolin-6-yl)urea], in assay [1], the “Increase in ATGL level” value is on record as “+++” and the “ATGL level in HepG2 cells” value is given as “some sort of increase in ATGL level”. Further, in assay [2], the “Number of lipid droplets” value is reported as “reduction in lipid droplets” and the “Reduction in Lipid Droplets” value is reported as “++”.
